Data taken from patent US12479847B2 (DANA-FARBER CANCER INSTITUTE, INC., priority 2019, dated 2025).
Read-outs that look alike come from different tables or passages of the source.

What was measured:
Assay in all cases: KINOMEscan (ScanMAX) kinase profiling
Type in all cases: binding
panel of 468 kinases [1] = target: T1, panel of 468 kinases (Homo sapiens, UniProt Q09013); settings: DMPK; 1 μM; read-out: % control
T1 construct: purchased KINOMEscan (ScanMAX) service
T1 sequence (Q09013 1-629): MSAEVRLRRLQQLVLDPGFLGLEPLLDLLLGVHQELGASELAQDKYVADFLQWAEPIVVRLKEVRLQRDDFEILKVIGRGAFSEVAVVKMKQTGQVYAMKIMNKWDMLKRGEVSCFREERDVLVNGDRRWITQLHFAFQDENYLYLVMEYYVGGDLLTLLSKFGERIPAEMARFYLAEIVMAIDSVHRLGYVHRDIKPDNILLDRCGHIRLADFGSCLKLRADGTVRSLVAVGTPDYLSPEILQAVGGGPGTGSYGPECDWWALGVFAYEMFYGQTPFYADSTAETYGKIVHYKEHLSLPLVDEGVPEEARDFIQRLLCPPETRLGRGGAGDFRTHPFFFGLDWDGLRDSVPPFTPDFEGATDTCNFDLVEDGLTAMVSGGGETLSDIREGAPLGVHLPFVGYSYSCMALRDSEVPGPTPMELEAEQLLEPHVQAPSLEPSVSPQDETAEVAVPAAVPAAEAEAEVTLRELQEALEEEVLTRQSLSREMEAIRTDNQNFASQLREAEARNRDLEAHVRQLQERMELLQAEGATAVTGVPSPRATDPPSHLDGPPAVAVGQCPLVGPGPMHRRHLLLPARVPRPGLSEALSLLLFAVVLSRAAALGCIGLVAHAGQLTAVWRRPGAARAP

panel of 468 kinases [2] = target: T2, panel of 468 kinases (Homo sapiens, UniProt Q15418); settings: 1 μM, read-out: % control
T2 construct: purchased KINOMEscan (ScanMAX) service

panel of 468 kinases [3] = target: T3, panel of 468 kinases (Homo sapiens, UniProt P00519, F317L); settings: 1 μM, read-out: % control
T3 construct: purchased KINOMEscan (ScanMAX) service

panel of 468 kinases [4] = target: T4, panel of 468 kinases (Homo sapiens, UniProt P08922); settings: ROS1; 1 μM; read-out: % control
T4 construct: purchased KINOMEscan (ScanMAX) service

panel of 468 kinases [5] = target: T5, panel of 468 kinases (Homo sapiens, UniProt Q13546); settings: RIPK1; 1 μM; read-out: % control
T5 construct: purchased KINOMEscan (ScanMAX) service
T5 sequence (Q13546 1-671): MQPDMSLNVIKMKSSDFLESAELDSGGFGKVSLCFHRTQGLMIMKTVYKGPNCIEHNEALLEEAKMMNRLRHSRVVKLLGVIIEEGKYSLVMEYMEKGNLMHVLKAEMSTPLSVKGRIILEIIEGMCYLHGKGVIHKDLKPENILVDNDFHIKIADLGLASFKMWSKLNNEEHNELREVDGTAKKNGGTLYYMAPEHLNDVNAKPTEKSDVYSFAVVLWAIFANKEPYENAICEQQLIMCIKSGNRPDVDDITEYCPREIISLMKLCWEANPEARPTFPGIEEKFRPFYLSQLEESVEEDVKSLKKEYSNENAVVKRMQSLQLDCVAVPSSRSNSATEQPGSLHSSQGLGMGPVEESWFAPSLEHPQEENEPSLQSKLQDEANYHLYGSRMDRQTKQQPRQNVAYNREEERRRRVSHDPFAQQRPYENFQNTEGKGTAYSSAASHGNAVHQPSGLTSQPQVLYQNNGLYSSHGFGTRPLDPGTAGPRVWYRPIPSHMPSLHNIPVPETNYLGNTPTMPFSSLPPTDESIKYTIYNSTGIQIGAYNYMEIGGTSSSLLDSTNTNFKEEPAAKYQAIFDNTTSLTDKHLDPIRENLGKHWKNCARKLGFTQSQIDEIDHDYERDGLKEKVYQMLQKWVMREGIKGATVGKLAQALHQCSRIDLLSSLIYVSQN

panel of 468 kinases [6] = target: T6, panel of 468 kinases (Homo sapiens, UniProt O15075); settings: DCAMKL1; 1 μM; read-out: % control
T6 construct: purchased KINOMEscan (ScanMAX) service

panel of 468 kinases [7] = target: T7, panel of 468 kinases (Homo sapiens, UniProt Q9NWZ3); settings: IRAK4; 1 μM; read-out: % control
T7 construct: purchased KINOMEscan (ScanMAX) service
T7 sequence (Q9NWZ3 1-460): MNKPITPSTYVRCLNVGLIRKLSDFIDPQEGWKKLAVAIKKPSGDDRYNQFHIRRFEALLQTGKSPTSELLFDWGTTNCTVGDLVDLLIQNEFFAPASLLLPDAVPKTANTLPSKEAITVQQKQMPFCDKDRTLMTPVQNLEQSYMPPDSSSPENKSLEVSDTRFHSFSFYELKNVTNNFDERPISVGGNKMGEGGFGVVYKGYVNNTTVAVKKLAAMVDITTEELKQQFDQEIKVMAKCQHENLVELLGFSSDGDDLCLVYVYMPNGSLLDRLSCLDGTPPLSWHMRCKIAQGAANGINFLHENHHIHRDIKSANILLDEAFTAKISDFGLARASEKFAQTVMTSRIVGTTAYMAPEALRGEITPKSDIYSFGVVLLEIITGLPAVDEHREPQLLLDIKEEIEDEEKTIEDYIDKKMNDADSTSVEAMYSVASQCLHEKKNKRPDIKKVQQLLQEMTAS

panel of 468 kinases [8] = target: T8, panel of 468 kinases (Homo sapiens, UniProt P30291); settings: WEE1; 1 μM; read-out: % control
T8 construct: purchased KINOMEscan (ScanMAX) service

panel of 468 kinases [9] = target: T9, panel of 468 kinases (Homo sapiens, UniProt P0C1S8); settings: WEE2; 1 μM; read-out: % control
T9 construct: purchased KINOMEscan (ScanMAX) service

panel of 468 kinases [10] = target: T10, panel of 468 kinases (Homo sapiens, UniProt P49761); settings: CLK3; 1 μM; read-out: % control
T10 construct: purchased KINOMEscan (ScanMAX) service

panel of 468 kinases [11] = target: T11, panel of 468 kinases (Homo sapiens, UniProt P80192); settings: MLK1; 1 μM; read-out: % control
T11 construct: purchased KINOMEscan (ScanMAX) service

panel of 468 kinases [12] = target: T12, panel of 468 kinases (Homo sapiens, UniProt Q9UPE1); settings: SRPK3; 1 μM; read-out: % control
T12 construct: purchased KINOMEscan (ScanMAX) service
T12 sequence (Q9UPE1 whole entry): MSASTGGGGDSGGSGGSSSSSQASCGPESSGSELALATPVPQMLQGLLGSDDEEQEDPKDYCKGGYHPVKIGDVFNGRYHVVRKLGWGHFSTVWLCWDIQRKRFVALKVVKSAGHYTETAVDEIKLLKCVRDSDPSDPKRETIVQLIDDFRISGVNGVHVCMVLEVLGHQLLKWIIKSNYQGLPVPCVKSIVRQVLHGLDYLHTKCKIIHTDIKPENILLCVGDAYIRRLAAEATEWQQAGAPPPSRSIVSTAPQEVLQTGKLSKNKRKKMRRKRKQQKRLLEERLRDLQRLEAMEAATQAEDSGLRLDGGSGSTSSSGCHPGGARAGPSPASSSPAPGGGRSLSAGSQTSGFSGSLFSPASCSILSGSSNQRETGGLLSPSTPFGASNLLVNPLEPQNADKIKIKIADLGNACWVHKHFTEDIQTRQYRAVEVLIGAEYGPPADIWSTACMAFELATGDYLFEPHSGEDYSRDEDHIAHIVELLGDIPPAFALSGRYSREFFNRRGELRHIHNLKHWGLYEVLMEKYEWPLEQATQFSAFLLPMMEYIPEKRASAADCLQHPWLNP

T3 sequence (P00519 whole entry F317L): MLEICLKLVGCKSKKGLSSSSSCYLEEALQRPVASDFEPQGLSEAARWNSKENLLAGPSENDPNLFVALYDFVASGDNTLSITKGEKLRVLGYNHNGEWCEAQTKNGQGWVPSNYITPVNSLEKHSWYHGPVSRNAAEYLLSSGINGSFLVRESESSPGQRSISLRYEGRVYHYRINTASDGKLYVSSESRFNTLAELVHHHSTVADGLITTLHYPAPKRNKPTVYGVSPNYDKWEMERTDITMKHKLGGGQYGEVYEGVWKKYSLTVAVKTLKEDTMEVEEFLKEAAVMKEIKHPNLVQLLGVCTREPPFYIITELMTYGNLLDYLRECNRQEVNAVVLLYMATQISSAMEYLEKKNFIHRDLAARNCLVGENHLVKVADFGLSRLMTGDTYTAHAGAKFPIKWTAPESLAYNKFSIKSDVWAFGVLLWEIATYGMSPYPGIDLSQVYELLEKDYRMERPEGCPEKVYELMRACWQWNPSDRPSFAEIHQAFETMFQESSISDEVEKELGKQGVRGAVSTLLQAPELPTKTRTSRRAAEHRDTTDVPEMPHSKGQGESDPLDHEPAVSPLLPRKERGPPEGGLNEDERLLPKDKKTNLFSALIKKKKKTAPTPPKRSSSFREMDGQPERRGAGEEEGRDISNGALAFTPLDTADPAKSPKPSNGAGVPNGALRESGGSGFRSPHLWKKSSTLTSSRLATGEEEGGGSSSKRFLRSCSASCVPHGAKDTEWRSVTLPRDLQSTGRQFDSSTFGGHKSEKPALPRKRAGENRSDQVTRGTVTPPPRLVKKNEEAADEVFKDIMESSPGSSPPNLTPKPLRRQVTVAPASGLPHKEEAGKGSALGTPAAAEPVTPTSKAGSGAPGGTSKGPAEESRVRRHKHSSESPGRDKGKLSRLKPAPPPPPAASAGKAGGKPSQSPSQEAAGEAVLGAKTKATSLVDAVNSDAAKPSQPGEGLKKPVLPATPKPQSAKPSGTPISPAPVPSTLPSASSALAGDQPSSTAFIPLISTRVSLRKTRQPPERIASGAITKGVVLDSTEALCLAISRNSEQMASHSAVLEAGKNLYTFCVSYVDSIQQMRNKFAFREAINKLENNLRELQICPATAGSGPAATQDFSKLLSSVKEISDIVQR
T9 sequence (P0C1S8 whole entry): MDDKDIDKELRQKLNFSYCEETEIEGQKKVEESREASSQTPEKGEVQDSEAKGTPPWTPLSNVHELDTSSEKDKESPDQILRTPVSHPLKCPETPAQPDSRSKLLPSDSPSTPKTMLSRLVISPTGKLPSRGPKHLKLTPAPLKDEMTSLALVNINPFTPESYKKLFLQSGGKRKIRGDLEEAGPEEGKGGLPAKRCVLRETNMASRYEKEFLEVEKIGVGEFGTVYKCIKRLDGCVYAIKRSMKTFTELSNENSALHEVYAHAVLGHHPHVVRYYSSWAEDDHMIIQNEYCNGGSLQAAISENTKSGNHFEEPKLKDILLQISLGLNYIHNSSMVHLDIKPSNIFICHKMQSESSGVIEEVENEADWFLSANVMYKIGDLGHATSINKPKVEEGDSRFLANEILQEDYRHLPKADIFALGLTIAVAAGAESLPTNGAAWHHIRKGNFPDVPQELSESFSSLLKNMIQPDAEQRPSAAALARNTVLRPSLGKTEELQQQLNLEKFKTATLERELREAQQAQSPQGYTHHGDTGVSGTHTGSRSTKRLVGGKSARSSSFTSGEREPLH
T8 sequence (P30291 whole entry): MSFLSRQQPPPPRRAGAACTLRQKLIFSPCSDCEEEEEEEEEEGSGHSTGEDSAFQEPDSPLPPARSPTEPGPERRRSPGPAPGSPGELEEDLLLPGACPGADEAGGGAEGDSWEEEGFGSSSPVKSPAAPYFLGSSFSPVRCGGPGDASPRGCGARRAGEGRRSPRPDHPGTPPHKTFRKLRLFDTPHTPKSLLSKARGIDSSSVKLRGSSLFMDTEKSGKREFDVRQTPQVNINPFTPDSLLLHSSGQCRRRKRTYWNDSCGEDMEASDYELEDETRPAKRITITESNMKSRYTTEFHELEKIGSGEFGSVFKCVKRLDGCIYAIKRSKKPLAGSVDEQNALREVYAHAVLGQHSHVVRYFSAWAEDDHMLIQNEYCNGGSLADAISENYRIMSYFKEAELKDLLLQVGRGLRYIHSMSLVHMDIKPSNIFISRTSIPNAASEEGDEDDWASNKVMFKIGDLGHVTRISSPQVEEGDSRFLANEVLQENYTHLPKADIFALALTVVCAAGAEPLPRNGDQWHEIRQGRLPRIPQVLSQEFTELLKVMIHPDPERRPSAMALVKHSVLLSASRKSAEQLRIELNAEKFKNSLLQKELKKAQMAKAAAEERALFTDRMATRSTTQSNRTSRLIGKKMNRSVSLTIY
T11 sequence (P80192 whole entry): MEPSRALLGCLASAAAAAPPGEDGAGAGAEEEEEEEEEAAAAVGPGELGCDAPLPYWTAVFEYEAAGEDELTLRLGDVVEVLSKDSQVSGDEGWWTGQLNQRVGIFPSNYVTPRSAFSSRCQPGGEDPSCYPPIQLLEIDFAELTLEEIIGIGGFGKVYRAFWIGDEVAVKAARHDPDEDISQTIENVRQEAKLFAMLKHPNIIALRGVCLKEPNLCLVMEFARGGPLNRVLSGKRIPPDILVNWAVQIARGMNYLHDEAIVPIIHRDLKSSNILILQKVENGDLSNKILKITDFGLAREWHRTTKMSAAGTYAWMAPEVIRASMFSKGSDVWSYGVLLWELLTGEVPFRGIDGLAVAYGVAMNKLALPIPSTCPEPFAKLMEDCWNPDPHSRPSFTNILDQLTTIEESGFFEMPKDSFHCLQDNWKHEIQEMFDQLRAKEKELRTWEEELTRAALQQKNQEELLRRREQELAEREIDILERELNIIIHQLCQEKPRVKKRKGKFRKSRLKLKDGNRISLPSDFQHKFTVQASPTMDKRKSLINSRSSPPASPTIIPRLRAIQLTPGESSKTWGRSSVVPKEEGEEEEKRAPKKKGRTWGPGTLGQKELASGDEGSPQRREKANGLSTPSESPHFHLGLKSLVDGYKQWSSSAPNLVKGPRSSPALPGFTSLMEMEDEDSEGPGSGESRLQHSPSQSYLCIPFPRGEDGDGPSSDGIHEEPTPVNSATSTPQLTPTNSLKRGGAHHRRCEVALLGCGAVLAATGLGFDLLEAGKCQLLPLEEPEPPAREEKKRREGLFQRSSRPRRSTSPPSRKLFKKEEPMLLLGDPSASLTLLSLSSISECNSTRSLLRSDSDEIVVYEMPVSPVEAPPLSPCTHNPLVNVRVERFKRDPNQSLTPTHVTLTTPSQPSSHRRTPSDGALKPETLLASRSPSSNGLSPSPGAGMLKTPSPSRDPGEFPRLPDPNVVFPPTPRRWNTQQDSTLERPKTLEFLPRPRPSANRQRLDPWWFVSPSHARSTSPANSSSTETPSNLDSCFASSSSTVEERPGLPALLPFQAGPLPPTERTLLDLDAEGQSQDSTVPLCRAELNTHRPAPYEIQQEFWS
T2 sequence (Q15418 whole entry): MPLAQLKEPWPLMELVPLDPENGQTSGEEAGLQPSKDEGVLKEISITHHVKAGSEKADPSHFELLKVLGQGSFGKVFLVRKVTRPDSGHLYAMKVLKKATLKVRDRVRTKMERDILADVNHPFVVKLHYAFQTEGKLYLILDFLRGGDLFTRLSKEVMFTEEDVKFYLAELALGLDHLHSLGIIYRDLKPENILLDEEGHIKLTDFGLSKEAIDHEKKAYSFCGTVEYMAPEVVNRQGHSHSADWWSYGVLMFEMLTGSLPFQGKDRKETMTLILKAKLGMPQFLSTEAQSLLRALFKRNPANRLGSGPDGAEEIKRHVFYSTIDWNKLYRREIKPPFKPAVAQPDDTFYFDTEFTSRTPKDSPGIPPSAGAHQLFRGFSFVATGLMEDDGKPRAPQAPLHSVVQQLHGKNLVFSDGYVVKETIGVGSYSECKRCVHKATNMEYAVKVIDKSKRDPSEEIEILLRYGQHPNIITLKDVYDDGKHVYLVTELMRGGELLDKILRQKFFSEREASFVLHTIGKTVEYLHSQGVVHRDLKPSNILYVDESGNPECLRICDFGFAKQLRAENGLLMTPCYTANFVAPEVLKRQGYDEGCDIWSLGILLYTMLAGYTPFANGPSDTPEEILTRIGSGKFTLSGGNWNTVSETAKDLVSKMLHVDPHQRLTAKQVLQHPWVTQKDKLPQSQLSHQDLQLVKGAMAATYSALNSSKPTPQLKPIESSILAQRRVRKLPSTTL

CNc1nc(Nc2ccc(S(=O)(=O)N3CCC(N4CCOCC4)CC3)cc2OC)nc2[nH]cc(Cl)c12 [Compound 12, 5-chloro-N2-(2-methoxy-4-((4-morpholinopiperidin-1-yl)sulfonyl)phenyl)-N4-methyl-7H-pyrrolo[2,3-d]pyrimidine-2,4-diamine]
remaining binding at 1 µM (panel of 468 kinases [1]): 97% | remaining binding at 1 µM (panel of 468 kinases [2]; RSK1(Kin.Dom.1-N-terminal)): 100% | remaining binding at 1 µM (panel of 468 kinases [2]; RSK1(Kin.Dom.2-C-terminal)): 100% | remaining binding at 1 µM (panel of 468 kinases [3]; ABL1(F317L)-nonphosphorylated): 100% | remaining binding at 1 µM (panel of 468 kinases [3]; ABL1(F317L)-phosphorylated): 70% | remaining binding at 1 µM (panel of 468 kinases [4]): 85% | remaining binding at 1 µM (panel of 468 kinases [5]): 92% | remaining binding at 1 µM (panel of 468 kinases [6]): 94% | remaining binding at 1 µM (panel of 468 kinases [7]): 95% | remaining binding at 1 µM (panel of 468 kinases [8]): 78% | remaining binding at 1 µM (panel of 468 kinases [9]): 100% | remaining binding at 1 µM (panel of 468 kinases [10]): 77% | remaining binding at 1 µM (panel of 468 kinases [11]): 100% | remaining binding at 1 µM (panel of 468 kinases [12]): 99%

CNc1nc(Nc2ccc(P3(=O)CCN(C4CCOCC4)CC3)cc2OC)nc2[nH]cc(Cl)c12 [Compound 77, 4-(4-((5-chloro-4-(methylamino)-7H-pyrrolo[2,3-d]pyrimidin-2-yl)amino)-3-methoxyphenyl)-1-(tetrahydro-2H-pyran-4-yl)-1,4-azaphosphinane 4-oxide]
remaining binding at 1 µM (panel of 468 kinases [1]): 100% | remaining binding at 1 µM (panel of 468 kinases [2]; RSK1(Kin.Dom.1-N-terminal)): 100% | remaining binding at 1 µM (panel of 468 kinases [2]; RSK1(Kin.Dom.2-C-terminal)): 64% | remaining binding at 1 µM (panel of 468 kinases [3]; ABL1(F317L)-nonphosphorylated): 100% | remaining binding at 1 µM (panel of 468 kinases [3]; ABL1(F317L)-phosphorylated): 54% | remaining binding at 1 µM (panel of 468 kinases [4]): 54% | remaining binding at 1 µM (panel of 468 kinases [5]): 88% | remaining binding at 1 µM (panel of 468 kinases [6]): 74% | remaining binding at 1 µM (panel of 468 kinases [7]): 98% | remaining binding at 1 µM (panel of 468 kinases [8]): 93% | remaining binding at 1 µM (panel of 468 kinases [9]): 100% | remaining binding at 1 µM (panel of 468 kinases [10]): 93% | remaining binding at 1 µM (panel of 468 kinases [11]): 98% | remaining binding at 1 µM (panel of 468 kinases [12]): 88%

CNc1nc(Nc2ccc(C(=O)N3CCC(N4CCOCC4)CC3)c3c2OCO3)nc2[nH]cc(Cl)c12 [Compound 75, (7-((5-chloro-4-(methylamino)-7H-pyrrolo[2,3-d]pyrimidin-2-yl)amino)benzo[d][1,3]dioxol-4-yl)(4-morpholinopiperidin-1-yl)methanone]
remaining binding at 1 µM (panel of 468 kinases [1]): 100% | remaining binding at 1 µM (panel of 468 kinases [2]; RSK1(Kin.Dom.1-N-terminal)): 100% | remaining binding at 1 µM (panel of 468 kinases [2]; RSK1(Kin.Dom.2-C-terminal)): 99% | remaining binding at 1 µM (panel of 468 kinases [3]; ABL1(F317L)-nonphosphorylated): 100% | remaining binding at 1 µM (panel of 468 kinases [3]; ABL1(F317L)-phosphorylated): 47% | remaining binding at 1 µM (panel of 468 kinases [4]): 86% | remaining binding at 1 µM (panel of 468 kinases [5]): 89% | remaining binding at 1 µM (panel of 468 kinases [6]): 74% | remaining binding at 1 µM (panel of 468 kinases [7]): 82% | remaining binding at 1 µM (panel of 468 kinases [8]): 95% | remaining binding at 1 µM (panel of 468 kinases [9]): 100% | remaining binding at 1 µM (panel of 468 kinases [10]): 58% | remaining binding at 1 µM (panel of 468 kinases [11]): 91% | remaining binding at 1 µM (panel of 468 kinases [12]): 40%
